Results: patent US20050245577A1, “Drug for kidney failure containing oxaluric acid derivative” (priority 2002, published 2005)

System: SD-strain rats
Test: Single dose toxicity test
Type: in vivo
Details: intravenous single dose 75 to 600 mg/kg, even at 600 mg/kg, 5 males and 5 females
Procedure: 5-Methyloxaluric acid was intravenously administered to SD-strain rats (6 weeks age, 5 males and 5 females) at the dose of 75 to 600 mg/kg.

With `CNC(=O)NC(=O)C(=O)O` [5-Methyloxaluric acid, 5-methyloxaluric acid] the death was “no death”.
